pIC50: −log10 of the molar value. Positions of bridges follow the written chain, without caps; N, C: chain ends. Non-standard residues stand in square brackets, D forms with d. Residues, ends and D or L forms follow the SMILES beside them. *: point of attachment. hPhe(3,5-F2-4-CF3) = N[C@@H](CCc1cc(F)c(C(F)(F)F)c(F)c1)C(=O)O; hPhe(3-Cl-4-CF3) = N[C@@H](CCc1ccc(C(F)(F)F)c(Cl)c1)C(=O)O; NMeAla(4-thiazolyl) = CN[C@@H](Cc1cscn1)C(=O)O; NMeAbu(4,4,4-F3) = CN[C@@H](CC(F)(F)F)C(=O)O; NMePhe(4-Me) = CN[C@@H](Cc1ccc(C)cc1)C(=O)O; NMePhe(4-F) = CN[C@@H](Cc1ccc(F)cc1)C(=O)O; NMeAla(cPent) = CN[C@@H](CC1CCCC1)C(=O)O; NMeGly(cPent) = CN[C@H](C(=O)O)C1CCCC1; NMeCha = CN[C@@H](CC1CCCCC1)C(=O)O; NMeChg = CN[C@H](C(=O)O)C1CCCCC1; NMeI = CC[C@H](C)[C@H](NC)C(=O)O; Gly(cBu) = N[C@H](C(=O)O)C1CCC1; NMeD = CN[C@@H](CC(=O)O)C(=O)O; NMeL = CN[C@@H](CC(C)C)C(=O)O; NMeV = CN[C@H](C(=O)O)C(C)C; d(β3hA) = C[C@@H](N)CC(=O)O; Morpholide = C1CN(*)CCO1; NMeA = CN[C@@H](C)C(=O)O; Piperidide = C1CCN(*)CC1; Ac5c = NC1(C(=O)O)CCCC1; Aze = O=C(O)[C@@H]1CCN1; NEtG = CCNCC(=O)O; Sar = CNCC(=O)O
Assays:
[1] = target: T1, Kras and SOS1 (biotin-tagged human Kras loaded with GDP, His-tagged human SOS1) (Homo sapiens, UniProt P01116, G12D); test: Protein-protein interaction inhibition between Kras and SOS1 (KrasGl2D-SOS PPI) using AlphaScreen; format: binding; conditions: AlphaScreen; biotin-tagged human Kras loaded with GDP, His-tagged human SOS1; read-out: KRAS G12D-SOS PPI IC50
T1 construct: made in house; host or cells: E. coli (stated for Kras only)
T1 sequence (P01116 1-188 isoform P01116-2 G12D): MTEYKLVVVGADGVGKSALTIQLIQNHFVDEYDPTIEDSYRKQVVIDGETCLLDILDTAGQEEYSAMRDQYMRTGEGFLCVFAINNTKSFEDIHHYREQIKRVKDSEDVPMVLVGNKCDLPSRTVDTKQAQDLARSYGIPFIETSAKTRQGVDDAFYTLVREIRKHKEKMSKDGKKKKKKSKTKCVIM
Method in brief: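 AlphaScreen format: Ni donor beads capture His-SOS1, streptavidin acceptor beads capture biotinylated Kras (E. coli-expressed, GDP-loaded post-purification). Excite 680 nm, read 520-620 nm.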

[2] = test system: Human pancreatic cancer cell line AsPC-1; test: Measurement of AsPC-1 cell growth inhibition (AsPC-1 CGI); format: cell-based; conditions: 96 h
Method in brief: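 AsPC-1 cells in 15% FBS RPMI-1640 were exposed to test compound for 96 hours at 37° C, with CellTiter-Glo as endpoint.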

In the case of `CC[C@H](C)[C@@H]1NC(=O)[C@H](C)N(C)C(=O)C[C@@H](C(=O)N2CCCCC2)N(C)C(=O)[C@H](C(C)C)N(C)C(=O)C2(CCCC2)NC(=O)[C@@H]2CCCN2C(=O)[C@H](CCc2ccc(C(F)(F)F)c(Cl)c2)NC(=O)CN(C)C(=O)[C@H](CC2CCCCC2)N(C)C(=O)CN(C)C(=O)CN(C)C1=O` [Compound 360] ([NMeA]I[Sar][Sar][NMeCha][Sar][hPhe(3-Cl-4-CF3)]P[Ac5c][NMeV][NMeD]-Piperidide; lactam N-11), the pIC50 [1] was 8.55 and the pIC50 [2] was 6.30 to 7.00.
`CC[C@H](C)[C@@H]1NC(=O)[C@H](CC(C)C)N(C)C(=O)C[C@@H](C)NC(=O)[C@H](CC(C)C)N(C)C(=O)C2(CCCC2)NC(=O)[C@@H]2CCCN2C(=O)[C@H](CCc2cc(F)c(C(F)(F)F)c(F)c2)NC(=O)CN(C)C(=O)[C@H](CC2CCCCC2)N(C)C(=O)CN(C)C(=O)CN(C)C1=O` [Compound 364] (cyclo([Ac5c][NMeL][d(β3hA)][NMeL]I[Sar][Sar][NMeCha][Sar][hPhe(3,5-F2-4-CF3)]P)) was tested, and the pIC50 [1] was 8.01 and the pIC50 [2] was 6.30 to 7.00.
Molecule `CC[C@H](C)[C@@H]1NC(=O)[C@H](CC(F)(F)F)N(C)C(=O)C[C@@H](C(=O)N2CCOCC2)N(C)C(=O)[C@H](C2CCCCC2)N(C)C(=O)C2(CCCC2)NC(=O)[C@@H]2CCCN2C(=O)[C@H](CCc2ccc(C(F)(F)F)c(Cl)c2)NC(=O)CN(C)C(=O)[C@H](CC2CCCC2)N(C)C(=O)CN(C)C(=O)CN(C)C1=O` [Compound 367] ([NMeAbu(4,4,4-F3)]I[Sar][Sar][NMeAla(cPent)][Sar][hPhe(3-Cl-4-CF3)]P[Ac5c][NMeChg][NMeD]-Morpholide; lactam N-11) has a pIC50 [1] of 9.22 and a pIC50 [2] of 6.30 to 7.00.
`CC[C@H](C)[C@@H]1NC(=O)[C@H](CC(C)C)N(C)C(=O)C[C@@H](C(=O)N(C)C)N(C)C(=O)[C@H](C2CCCC2)N(C)C(=O)C2(CCCC2)NC(=O)[C@H](Cc2cscn2)N(C)C(=O)[C@H](CCc2ccc(C(F)(F)F)c(Cl)c2)NC(=O)CN(C)C(=O)[C@H](CC2CCCCC2)N(C)C(=O)[C@@H]2CCN2C(=O)[C@H](C)N(C)C1=O` [Compound 384] ([NMeL]I[NMeA][Aze][NMeCha][Sar][hPhe(3-Cl-4-CF3)][NMeAla(4-thiazolyl)][Ac5c][NMeGly(cPent)][NMeD]-NMe2; lactam N-11) gave a pIC50 [1] of 9.00 and a pIC50 [2] of 6.30 to 7.00.
For `CC[C@H](C)[C@@H]1NC(=O)[C@H](CC(C)C)N(C)C(=O)C[C@@H](C(=O)N(C)C)N(C)C(=O)[C@H]([C@@H](C)CC)N(C)C(=O)C2(CCCC2)NC(=O)[C@H](Cc2ccc(F)cc2)N(C)C(=O)[C@H](CCc2ccc(C(F)(F)F)c(Cl)c2)NC(=O)CN(C)C(=O)[C@H](Cc2ccc(C)cc2)N(C)C(=O)[C@@H]2CCN2C(=O)[C@H](C)N(C)C1=O` [Compound 385] ([NMeL]I[NMeA][Aze][NMePhe(4-Me)][Sar][hPhe(3-Cl-4-CF3)][NMePhe(4-F)][Ac5c][NMeI][NMeD]-NMe2; lactam N-11), the pIC50 [1] was 8.33 and the pIC50 [2] was 7.00 to 7.30.
For `CC[C@H](C)[C@@H]1NC(=O)[C@H](C2CCCC2)N(C)C(=O)C[C@@H](C(=O)N2CCCCC2)N(C)C(=O)[C@H](C(C)C)N(C)C(=O)C2(CCCC2)NC(=O)[C@@H]2CCCN2C(=O)[C@H](CCc2ccc(C(F)(F)F)c(Cl)c2)NC(=O)CN(C)C(=O)[C@H](CC2CCCCC2)N(C)C(=O)CN(C)C(=O)CN(C)C1=O` [Compound 393] ([NMeGly(cPent)]I[Sar][Sar][NMeCha][Sar][hPhe(3-Cl-4-CF3)]P[Ac5c][NMeV][NMeD]-Piperidide; lactam N-11), the pIC50 [1] was 8.28 and the pIC50 [2] was 6.30 to 7.00.
Molecule `CC[C@H](C)[C@@H]1NC(=O)[C@H](CC(C)C)N(C)C(=O)C[C@@H](C)NC(=O)[C@H](C(C)C)N(C)C(=O)C2(CCCC2)NC(=O)[C@@H]2CCCN2C(=O)[C@H](CCc2ccc(C(F)(F)F)c(Cl)c2)NC(=O)CN(CC)C(=O)[C@H](CC2CCCCC2)N(C)C(=O)CN(C)C(=O)CN(C)C1=O` [Compound 395] (cyclo([Ac5c][NMeV][d(β3hA)][NMeL]I[Sar][Sar][NMeCha][NEtG][hPhe(3-Cl-4-CF3)]P)) has a pIC50 [1] of 7.33 and a pIC50 [2] of 6.30 to 7.00.
Molecule `CC(C)C[C@H]1C(=O)N[C@@H](C2CCC2)C(=O)N(C)CC(=O)N(C)CC(=O)N(C)[C@@H](CC2CCCCC2)C(=O)N(C)CC(=O)N[C@@H](CCc2ccc(C(F)(F)F)c(Cl)c2)C(=O)N2CCC[C@H]2C(=O)NC2(CCCC2)C(=O)N(C)[C@@H](C2CCCCC2)C(=O)N(C)[C@H](C(=O)N2CCCCC2)CC(=O)N1C` [Compound 411] ([NMeL][Gly(cBu)][Sar][Sar][NMeCha][Sar][hPhe(3-Cl-4-CF3)]P[Ac5c][NMeChg][NMeD]-Piperidide; lactam N-11) has a pIC50 [1] of 9.21 and a pIC50 [2] of 7.00 to 7.30.

From patent US12371454B2, “Cyclic peptide compound having Kras inhibitory action” (priority 2019, dated 2025)
